Assay results: ChEMBL document CHEMBL1201862, “PubChem BioAssay data set” (2004)
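Growth conditions: 96-well plates. Treatment: test compound, 48 hours, 5 concentrations. Analysis: linear interpolation between bracketing concentrations; unreached endpoints set to highest concentration. GI50 marks 50% less growth.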 Calls of active or inactive are those of the source. No stated cut-off is given here; in the data, active = GI50 up to about 1.1 µM and inactive = higher.

Assays:
Assay in all cases: DTP human tumour cell line panel, 48 h
SW-620 = tested on: SW-620
A549 = tested on: A549
RXF 393 = tested on: RXF 393
SNB-75 = tested on: SNB-75
CAKI-1 = tested on: CAKI-1
SK-MEL-2 = tested on: SK-MEL-2
SNB-19 = tested on: SNB-19
M14 = tested on: M14
RPMI-8226 = tested on: RPMI-8226
U-251 = tested on: U-251
SR = tested on: SR
HOP-62 = tested on: HOP-62
UACC-257 = tested on: UACC-257
Malme-3M = tested on: Malme-3M
ACHN = tested on: ACHN
SN12C = tested on: SN12C
MDA-MB-435 = tested on: MDA-MB-435
PC-3 = tested on: PC-3
OVCAR-5 = tested on: OVCAR-5

Measured: GI50

Cc1ccc(S(=O)(=O)NC2(C=O)CCCC3CCCCC32)cc1 (stereo not drawn)
inactive: SW-620 > 100 µM | A549 > 100 µM | RXF 393 > 100 µM | SNB-75 > 100 µM | CAKI-1 > 100 µM | SK-MEL-2 > 100 µM | SNB-19 > 100 µM | M14 > 100 µM | RPMI-8226 > 100 µM | U-251 > 100 µM | SR > 100 µM | HOP-62 > 100 µM | UACC-257 > 100 µM | Malme-3M > 100 µM | ACHN > 100 µM | SN12C > 100 µM

N#CCCOc1cccc(C2(N3CCCCC3)CCCCC2)c1
inactive: SW-620 > 100 µM | A549 > 100 µM | CAKI-1 > 100 µM | MDA-MB-435 > 100 µM | SK-MEL-2 > 100 µM | PC-3 > 100 µM | SNB-19 > 100 µM | OVCAR-5 > 100 µM | M14 > 100 µM | RPMI-8226 > 100 µM | U-251 > 100 µM | SR > 100 µM | HOP-62 > 100 µM | UACC-257 > 100 µM | Malme-3M > 100 µM | ACHN > 100 µM | SN12C > 100 µM

NC(CCCC(N)P(=O)(O)c1ccccc1)P(=O)(O)c1ccccc1 (stereo not drawn)
inactive: SW-620 > 261 µM | A549 > 261 µM | RXF 393 > 261 µM | SNB-75 > 261 µM | SK-MEL-2 > 261 µM | SNB-19 > 261 µM | M14 > 261 µM | RPMI-8226 > 261 µM | U-251 > 261 µM | SR > 261 µM | HOP-62 > 261 µM | UACC-257 > 261 µM | Malme-3M > 261 µM | ACHN > 261 µM | SN12C > 261 µM

CC(ON1[C@](C)(c2ccccc2)CC[C@@]1(C)c1ccccc1)c1ccccc1 (stereo partly drawn)
inactive: SW-620 37.9 µM | A549 30.9 µM | RXF 393 20.4 µM | SNB-75 25.9 µM | CAKI-1 37.8 µM | MDA-MB-435 44.4 µM | SK-MEL-2 20 µM | PC-3 39.2 µM | SNB-19 25.5 µM | OVCAR-5 41.1 µM | M14 24.2 µM | RPMI-8226 22.4 µM | U-251 31 µM | HOP-62 83.4 µM | UACC-257 28.3 µM | Malme-3M 32.5 µM | SN12C 45.6 µM

Cc1cccc(NC(=O)C(=O)C2C(=O)NC(=O)NC2=O)c1C
inactive: SW-620 > 100 µM | A549 > 100 µM | RXF 393 > 100 µM | SNB-75 > 100 µM | CAKI-1 > 100 µM | SK-MEL-2 > 100 µM | SNB-19 > 100 µM | OVCAR-5 > 100 µM | M14 > 100 µM | RPMI-8226 > 100 µM | U-251 > 100 µM | SR > 100 µM | HOP-62 > 100 µM | UACC-257 > 100 µM | Malme-3M > 100 µM | ACHN > 100 µM | SN12C > 100 µM

COC(=O)c1ccc2n[se]nc2c1
inactive: SW-620 > 100 µM | A549 > 100 µM | RXF 393 > 100 µM | SNB-75 83.6 µM | CAKI-1 > 100 µM | SK-MEL-2 > 100 µM | SNB-19 > 100 µM | OVCAR-5 > 100 µM | M14 > 100 µM | RPMI-8226 > 100 µM | U-251 > 100 µM | SR > 100 µM | HOP-62 > 100 µM | UACC-257 > 100 µM | Malme-3M > 100 µM | ACHN > 100 µM | SN12C > 100 µM

C/C(=N\Nc1nc2ccccc2s1)c1ncccn1
active: SW-620 < 0.0154 µM | A549 0.141 µM | RXF 393 1.04 µM | SNB-75 0.617 µM | CAKI-1 < 0.01 µM | MDA-MB-435 0.363 µM | SK-MEL-2 0.92 µM | PC-3 0.118 µM | SNB-19 0.316 µM | OVCAR-5 0.415 µM | M14 < 0.0194 µM | RPMI-8226 0.0775 µM | U-251 < 0.0196 µM | HOP-62 0.131 µM | UACC-257 < 0.0205 µM | Malme-3M 0.0505 µM | ACHN < 0.01 µM | SN12C < 0.0204 µM

COc1ccc(NC(=O)CC(=O)N/N=C/c2ccc(N(CCC#N)S(C)(=O)=O)cc2)cc1
inactive: SW-620 > 100 µM | A549 > 100 µM | RXF 393 > 100 µM | SNB-75 > 100 µM | CAKI-1 > 100 µM | SK-MEL-2 > 100 µM | OVCAR-5 > 100 µM | M14 > 100 µM | RPMI-8226 > 100 µM | U-251 > 100 µM | SR 3.33 µM | HOP-62 > 100 µM | Malme-3M > 100 µM | ACHN > 100 µM | SN12C > 100 µM

CC(=O)Nc1ccc(C2C(C(=O)Nc3ccccc3C)=C(C)NC(C)=C2C(=O)Nc2ccccc2C)cc1
inactive: SW-620 > 100 µM | A549 > 100 µM | RXF 393 > 100 µM | SNB-75 > 61.2 µM | CAKI-1 > 100 µM | SK-MEL-2 > 100 µM | SNB-19 > 100 µM | OVCAR-5 > 100 µM | M14 > 100 µM | RPMI-8226 > 100 µM | U-251 > 100 µM | SR 20.1 µM | HOP-62 > 100 µM | UACC-257 96.6 µM | Malme-3M > 100 µM | ACHN > 100 µM | SN12C > 100 µM

CC(=O)O[C@]12CCCCC1C1(O)C(O)CCCC[C@H]12 (stereo partly drawn)
inactive: SW-620 > 100 µM | A549 > 100 µM | RXF 393 > 100 µM | SNB-75 29.6 µM | SK-MEL-2 > 100 µM | SNB-19 > 100 µM | M14 > 100 µM | RPMI-8226 > 100 µM | U-251 > 100 µM | SR > 100 µM | HOP-62 > 100 µM | UACC-257 > 100 µM | Malme-3M > 100 µM | ACHN > 100 µM | SN12C > 100 µM

CCOC(=O)CCC(NC(=O)c1ccc(NCc2ccc3nc(-c4ccccc4)c(Cl)nc3c2)cc1)C(=O)OCC (stereo not drawn)
inactive: SW-620 > 100 µM | A549 47.8 µM | RXF 393 48.9 µM | SNB-75 16.9 µM | CAKI-1 30.6 µM | SK-MEL-2 10.6 µM | SNB-19 97.7 µM | OVCAR-5 > 100 µM | M14 16.4 µM | RPMI-8226 18.2 µM | U-251 69.7 µM | SR 13.5 µM | HOP-62 > 100 µM | Malme-3M 13 µM | ACHN 37.9 µM | SN12C 41.1 µM

NC(=O)C(=O)N/N=C(\CC1(O)C(=O)Nc2ccccc21)c1ccc2ccccc2c1 (stereo not drawn)
inactive: SW-620 33.5 µM | A549 20.7 µM | RXF 393 24.8 µM | SNB-75 40.6 µM | CAKI-1 35.2 µM | SK-MEL-2 22.1 µM | SNB-19 22.9 µM | OVCAR-5 > 100 µM | M14 32.7 µM | RPMI-8226 34.4 µM | U-251 25.9 µM | SR 18.2 µM | HOP-62 51.2 µM | UACC-257 28.5 µM | Malme-3M 61.7 µM | ACHN 32.9 µM | SN12C 26.3 µM

O=C(Nc1nc2ncn(CCO)c2c(=O)[nH]1)c1ccccc1
inactive: SW-620 > 100 µM | A549 > 100 µM | RXF 393 > 100 µM | SNB-75 > 100 µM | CAKI-1 > 100 µM | SK-MEL-2 > 100 µM | SNB-19 > 100 µM | OVCAR-5 > 100 µM | M14 > 100 µM | RPMI-8226 > 100 µM | U-251 > 100 µM | SR > 100 µM | HOP-62 > 100 µM | UACC-257 > 100 µM | Malme-3M > 100 µM | ACHN > 100 µM | SN12C > 100 µM

CC(=O)OC12C=CC(=O)N1c1ccccc1C(=O)O2 (stereo not drawn)
inactive: SW-620 > 100 µM | A549 > 100 µM | RXF 393 > 100 µM | SNB-75 > 100 µM | CAKI-1 > 100 µM | SK-MEL-2 > 100 µM | SNB-19 > 100 µM | OVCAR-5 > 100 µM | M14 > 100 µM | RPMI-8226 > 100 µM | U-251 > 100 µM | SR > 100 µM | HOP-62 > 100 µM | UACC-257 > 100 µM | ACHN > 100 µM | SN12C > 100 µM
active: Malme-3M 0.962 µM

C=CC1(C)CCC(C(C)C(=O)C(C=C(C)C)OC(C)=O)C12C(=O)Oc1ccccc1C2=O (stereo not drawn)
inactive: SW-620 63.8 µM | A549 35.7 µM | RXF 393 26.7 µM | SNB-75 52.5 µM | SK-MEL-2 32.7 µM | SNB-19 > 100 µM | M14 54.2 µM | RPMI-8226 23.7 µM | U-251 38 µM | SR 33.6 µM | HOP-62 35.2 µM | UACC-257 35 µM | Malme-3M 48.5 µM | ACHN 51.5 µM | SN12C 49.4 µM

COC(=O)C1[C@@H](C(=O)OC)C12C=Cc1ccccc1C=C2 (stereo partly drawn)
inactive: SW-620 > 100 µM | A549 > 100 µM | RXF 393 > 100 µM | SK-MEL-2 > 100 µM | SNB-19 > 100 µM | OVCAR-5 > 100 µM | M14 > 100 µM | RPMI-8226 > 100 µM | U-251 > 100 µM | SR > 100 µM | HOP-62 > 100 µM | UACC-257 > 100 µM | Malme-3M > 100 µM | ACHN > 100 µM | SN12C > 100 µM

Nc1ccc(-c2nn3c(COc4ccc(Cl)cc4)nnc3s2)cc1
inactive: SW-620 > 100 µM | A549 > 100 µM | RXF 393 49.3 µM | SNB-75 > 100 µM | CAKI-1 54.2 µM | MDA-MB-435 62.2 µM | SK-MEL-2 > 100 µM | PC-3 88.7 µM | SNB-19 88.1 µM | OVCAR-5 > 100 µM | M14 > 100 µM | RPMI-8226 77.6 µM | U-251 > 100 µM | UACC-257 > 100 µM | Malme-3M > 100 µM | ACHN > 100 µM | SN12C > 100 µM
